Like-named read-outs stand apart in the source and are kept apart here.

The conditions of data set [1]: background statement on sodium hydroxide solutions, cited from earlier work.
A short description of data set [2]: Freezing point of caustic solutions. It is filed as physicochemical.
A further data set has as its system human skin. To be noted: in vivo.

Regarding `[Na+].[OH-]` [50% sodium hydroxide solution, sodium hydroxide], the “freeze point (begins to freeze / will freeze)” value in data set [1] was 14 Celsius.
Turning to `[Na+].[OH-]` [25 wt % NaOH, sodium hydroxide], in data set [2], the freezing point is −18 °C. The “freeze point (begins to freeze / will freeze)” value in data set [1] (listed as 25% solution) is −17 Celsius. Moreover, the “effect on human skin” value with human skin is reported as “immediate burning of the skin, followed with scarring”.

The values above are taken from patent US11407647B2, “Synthetic caustic composition” (FLUID ENERGY GROUP LTD., priority 2017, dated 2022).
